How the values were obtained:
Experiment in all cases: cell-based
Assay type in all cases: cell-based
hNav1.4 [1] = biological target: T1, hNav1.4 (Homo sapiens, UniProt P35499); details: ratio of IonWorks Quattro IC50 values; Table 6
hNav1.4 [2] = biological target: T1, hNav1.4; details: Table 12; for IC50: PatchXpress, tonic block, read-out: PX hNav1.4 Tonic IC50; for Nav1.4/Nav1.7: ratio of PX tonic IC50 values
hNav1.7 = hNav1.7 (Homo sapiens, UniProt Q15858); details: Table 12; PatchXpress, tonic block; read-out: PX hNav1.7 Tonic IC50
Sequence of hNav1.7 (Q15858 whole entry): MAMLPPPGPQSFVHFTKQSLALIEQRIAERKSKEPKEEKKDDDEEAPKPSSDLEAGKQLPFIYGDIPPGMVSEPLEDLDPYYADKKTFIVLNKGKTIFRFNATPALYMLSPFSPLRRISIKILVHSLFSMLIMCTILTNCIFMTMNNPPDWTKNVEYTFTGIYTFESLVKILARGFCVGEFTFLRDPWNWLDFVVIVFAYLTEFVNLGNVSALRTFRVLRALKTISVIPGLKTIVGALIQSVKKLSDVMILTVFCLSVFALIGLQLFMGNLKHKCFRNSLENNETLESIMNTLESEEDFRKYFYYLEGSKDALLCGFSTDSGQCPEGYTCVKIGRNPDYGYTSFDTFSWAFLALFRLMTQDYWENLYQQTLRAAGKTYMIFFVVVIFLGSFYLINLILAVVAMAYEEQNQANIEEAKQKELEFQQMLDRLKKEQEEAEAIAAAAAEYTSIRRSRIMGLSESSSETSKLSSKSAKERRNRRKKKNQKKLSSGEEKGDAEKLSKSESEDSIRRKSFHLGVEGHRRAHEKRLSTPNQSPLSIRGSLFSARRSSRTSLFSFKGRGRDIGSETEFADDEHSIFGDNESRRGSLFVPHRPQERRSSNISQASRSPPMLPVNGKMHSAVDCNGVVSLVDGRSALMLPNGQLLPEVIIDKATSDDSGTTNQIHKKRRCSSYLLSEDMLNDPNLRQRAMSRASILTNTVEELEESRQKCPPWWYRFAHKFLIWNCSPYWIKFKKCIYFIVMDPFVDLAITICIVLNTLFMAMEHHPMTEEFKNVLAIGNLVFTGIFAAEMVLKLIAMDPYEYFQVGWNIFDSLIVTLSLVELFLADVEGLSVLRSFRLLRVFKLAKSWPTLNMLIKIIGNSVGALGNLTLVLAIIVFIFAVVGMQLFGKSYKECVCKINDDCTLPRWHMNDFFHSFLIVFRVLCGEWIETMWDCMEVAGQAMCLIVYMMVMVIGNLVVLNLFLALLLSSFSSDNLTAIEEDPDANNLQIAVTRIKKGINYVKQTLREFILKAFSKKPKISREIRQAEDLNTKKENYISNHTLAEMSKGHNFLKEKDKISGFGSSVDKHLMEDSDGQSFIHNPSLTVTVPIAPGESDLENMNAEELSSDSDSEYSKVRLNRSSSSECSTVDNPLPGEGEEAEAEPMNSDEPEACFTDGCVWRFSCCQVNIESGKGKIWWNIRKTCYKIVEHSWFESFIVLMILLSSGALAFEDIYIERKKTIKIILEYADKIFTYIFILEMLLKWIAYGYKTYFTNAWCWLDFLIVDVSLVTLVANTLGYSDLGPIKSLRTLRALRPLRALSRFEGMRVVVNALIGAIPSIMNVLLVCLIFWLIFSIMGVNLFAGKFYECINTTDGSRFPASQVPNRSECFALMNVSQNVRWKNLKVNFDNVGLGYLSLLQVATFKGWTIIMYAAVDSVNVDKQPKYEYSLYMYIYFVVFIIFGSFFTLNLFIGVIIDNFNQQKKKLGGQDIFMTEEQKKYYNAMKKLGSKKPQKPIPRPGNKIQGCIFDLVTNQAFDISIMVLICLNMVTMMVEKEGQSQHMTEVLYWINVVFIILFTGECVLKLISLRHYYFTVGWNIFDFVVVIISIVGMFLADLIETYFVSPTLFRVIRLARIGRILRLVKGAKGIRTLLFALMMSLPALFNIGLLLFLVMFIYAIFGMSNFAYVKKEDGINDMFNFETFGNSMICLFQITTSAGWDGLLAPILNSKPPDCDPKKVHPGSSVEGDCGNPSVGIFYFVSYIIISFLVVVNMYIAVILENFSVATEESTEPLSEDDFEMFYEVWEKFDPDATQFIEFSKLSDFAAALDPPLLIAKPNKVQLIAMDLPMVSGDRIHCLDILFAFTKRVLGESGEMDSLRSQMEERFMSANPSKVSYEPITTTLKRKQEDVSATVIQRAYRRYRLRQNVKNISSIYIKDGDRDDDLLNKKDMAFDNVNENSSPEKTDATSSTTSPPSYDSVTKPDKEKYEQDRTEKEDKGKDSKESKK

T1 sequence (P35499 whole entry): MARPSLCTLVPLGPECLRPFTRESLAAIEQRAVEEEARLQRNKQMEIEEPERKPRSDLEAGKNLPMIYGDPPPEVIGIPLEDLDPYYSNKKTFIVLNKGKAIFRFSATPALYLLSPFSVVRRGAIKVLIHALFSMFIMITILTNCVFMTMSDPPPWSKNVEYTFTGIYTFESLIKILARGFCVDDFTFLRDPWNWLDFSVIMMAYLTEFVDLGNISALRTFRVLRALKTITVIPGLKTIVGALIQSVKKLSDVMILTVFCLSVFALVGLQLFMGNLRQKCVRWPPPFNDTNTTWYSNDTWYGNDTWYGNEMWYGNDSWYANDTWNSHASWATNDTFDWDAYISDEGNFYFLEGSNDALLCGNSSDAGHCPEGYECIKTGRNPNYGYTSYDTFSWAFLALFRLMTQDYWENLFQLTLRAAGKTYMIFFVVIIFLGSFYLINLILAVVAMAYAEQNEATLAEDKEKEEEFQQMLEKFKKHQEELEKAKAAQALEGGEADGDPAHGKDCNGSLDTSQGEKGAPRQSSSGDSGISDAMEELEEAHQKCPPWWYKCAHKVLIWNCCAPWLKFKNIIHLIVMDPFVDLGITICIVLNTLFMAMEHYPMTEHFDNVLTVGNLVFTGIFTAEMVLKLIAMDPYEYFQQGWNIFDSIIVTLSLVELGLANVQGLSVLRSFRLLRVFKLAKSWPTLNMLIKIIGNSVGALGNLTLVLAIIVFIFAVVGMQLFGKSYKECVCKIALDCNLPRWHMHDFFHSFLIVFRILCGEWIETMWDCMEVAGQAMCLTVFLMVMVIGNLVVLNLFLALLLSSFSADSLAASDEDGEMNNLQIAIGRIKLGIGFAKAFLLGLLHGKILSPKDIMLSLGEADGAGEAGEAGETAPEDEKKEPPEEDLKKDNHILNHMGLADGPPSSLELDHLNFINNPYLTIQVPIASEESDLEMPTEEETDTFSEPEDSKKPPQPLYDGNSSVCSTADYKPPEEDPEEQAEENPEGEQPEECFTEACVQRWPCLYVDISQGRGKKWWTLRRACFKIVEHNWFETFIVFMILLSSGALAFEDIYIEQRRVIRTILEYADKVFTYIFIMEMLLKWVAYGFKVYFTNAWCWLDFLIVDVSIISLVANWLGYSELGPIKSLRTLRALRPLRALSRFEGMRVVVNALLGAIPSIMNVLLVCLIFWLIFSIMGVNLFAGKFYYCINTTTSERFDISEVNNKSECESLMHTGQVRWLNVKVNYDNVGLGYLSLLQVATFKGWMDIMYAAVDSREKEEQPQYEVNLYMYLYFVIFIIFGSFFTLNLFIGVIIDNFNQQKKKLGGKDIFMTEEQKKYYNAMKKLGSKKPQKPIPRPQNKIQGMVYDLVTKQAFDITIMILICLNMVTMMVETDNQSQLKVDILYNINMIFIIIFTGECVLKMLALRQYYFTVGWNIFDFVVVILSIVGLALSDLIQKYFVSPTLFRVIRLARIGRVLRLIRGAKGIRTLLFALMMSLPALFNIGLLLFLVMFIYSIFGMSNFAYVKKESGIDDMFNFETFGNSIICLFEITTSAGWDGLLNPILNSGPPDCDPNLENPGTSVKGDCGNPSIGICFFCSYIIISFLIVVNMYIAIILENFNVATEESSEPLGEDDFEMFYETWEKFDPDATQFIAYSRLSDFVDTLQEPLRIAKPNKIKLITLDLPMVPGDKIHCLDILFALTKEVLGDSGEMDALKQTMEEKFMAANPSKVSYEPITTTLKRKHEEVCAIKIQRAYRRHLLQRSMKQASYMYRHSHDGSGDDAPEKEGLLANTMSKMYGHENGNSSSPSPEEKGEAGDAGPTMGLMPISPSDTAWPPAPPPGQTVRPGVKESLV

Row | Compound | Nav1.4/Nav1.7 (hNav1.4 [1]) | IC50 (hNav1.4 [2]) [nM] | Nav1.4/Nav1.7 (hNav1.4 [2]) | IC50 (hNav1.7) [nM]
1 | CC[C@H](C)[C@H](NC(=O)[C@@H](NC(=O)[C@H](CCCCN)NC(=O)[C@H](CCCNC(=N)N)NC(=O)[C@@H]1CSSC[C@@H]2NC(=O)[C@H](C)NC(=O)[C@H](CCCNC(=N)N)NC(=O)[C@H](CCCCN)NC(=O)[C@H](CO)NC(=O)[C@H](CC(=O)O)NC(=O)[C@@H]3CSSC[C@H](NC(=O)[C@H](CCCNC(=N)N)NC(=O)[C@H](CC(C)C)NC(=O)CNC(=O)[C@H](Cc4cccc5ccccc45)NC(=O)[C@H](CSSC[C@H](NC(=O)[C@@H](N)Cc4ccc(O)cc4)C(=O)N[C@@H](CCC(N)=O)C(=O)N[C@@H](CCCCN)C(=O)N[C@@H](Cc4c[nH]c5ccccc45)C(=O)N[C@@H](CCSC)C(=O)N[C@@H](Cc4c[nH]c5ccccc45)C(=O)N[C@@H]([C@@H](C)O)C(=O)N3)NC2=O)C(=O)N[C@@H](CCCCN)C(=O)N[C@@H](CC(C)C)C(=O)N[C@@H](Cc2c[nH]c3ccccc23)C(=O)N1)[C@@H](C)CC)C(N)=O [compound 37] | 4 | – | – | –
2 | CC[C@H](C)[C@H](NC(=O)[C@@H](NC(=O)[C@H](CCCCN)NC(=O)[C@H](CCCNC(=N)N)NC(=O)[C@@H]1CSSC[C@@H]2NC(=O)[C@H](C)NC(=O)[C@H](CCCNC(=N)N)NC(=O)[C@H](CCCCN)NC(=O)[C@H](CO)NC(=O)[C@H](CC(=O)O)NC(=O)[C@@H]3CSSC[C@H](NC(=O)[C@H](CCCNC(=N)N)NC(=O)[C@H](CC(C)C)NC(=O)CNC(=O)[C@H](CCC(=O)O)NC(=O)[C@H](CSSC[C@H](NC(=O)[C@@H](N)Cc4ccc(O)cc4)C(=O)N[C@@H](CCC(N)=O)C(=O)N[C@@H](CCCCN)C(=O)N[C@@H](Cc4c[nH]c5ccccc45)C(=O)N[C@@H](CCSC)C(=O)N[C@@H](Cc4c[nH]c5ccccc45)C(=O)N[C@@H]([C@@H](C)O)C(=O)N3)NC2=O)C(=O)N[C@@H](CCCCN)C(=O)N[C@@H](Cc2cccc3ccccc23)C(=O)N[C@@H](Cc2c[nH]c3ccccc23)C(=O)N1)[C@@H](C)CC)C(N)=O [compound 42] | 3 | – | – | –
3 | C#CC[C@@H]1NC(=O)[C@@H]2CSSC[C@H](NC(=O)[C@H](Cc3ccc(O)cc3)NC(=O)[C@@H](N)CC#N)C(=O)N[C@@H](CCC(N)=O)C(=O)N[C@@H](CCCCN)C(=O)N[C@@H](Cc3c[nH]c4ccccc34)C(=O)N[C@@H](CCCC)C(=O)N[C@@H](Cc3c[nH]c4ccccc34)C(=O)N[C@@H]([C@@H](C)O)C(=O)N[C@H]3CSSC[C@H](NC(=O)[C@H](CCCNC(=N)N)NC(=O)[C@H](CC(C)C)NC(=O)CNC1=O)C(=O)N[C@@H](CCCCN)C(=O)N[C@@H](CC(C)C)C(=O)N[C@@H](Cc1c[nH]c4ccc(Br)cc14)C(=O)N[C@H](C(=O)N[C@@H](CCCNC(=N)N)C(=O)N[C@@H](CCCCN)C(=O)N[C@H](C(=O)N[C@H](C(N)=O)[C@@H](C)CC)[C@@H](C)CC)CSSC[C@H](NC(=O)[C@H](C)NC(=O)[C@H](CCCNC(=N)N)NC(=O)[C@H](CCCCN)NC(=O)[C@H](CO)NC(=O)[C@H](CC(=O)O)NC3=O)C(=O)N2 [compound 872] | – | 3.6 | 3 | 1.09
4 | C#CC[C@@H]1NC(=O)[C@@H]2CSSC[C@H](NC(=O)[C@H](Cc3ccc(O)cc3)NC(=O)[C@@H](N)CC#N)C(=O)N[C@@H](CCC(N)=O)C(=O)N[C@@H](CCCCN)C(=O)N[C@@H](Cc3c[nH]c4ccccc34)C(=O)N[C@@H](CCCC)C(=O)N[C@@H](Cc3c[nH]c4ccccc34)C(=O)N[C@@H]([C@@H](C)O)C(=O)N[C@H]3CSSC[C@H](NC(=O)[C@H](CCCNC(=N)N)NC(=O)[C@H](CC(C)C)NC(=O)CNC1=O)C(=O)N[C@@H](CCCCN)C(=O)N[C@@H](CC(C)C)C(=O)N[C@@H](Cc1c[nH]c4ccccc14)C(=O)N[C@H](C(=O)N[C@@H](CCCNC(=N)N)C(=O)N[C@@H](CCCCN)C(=O)N[C@@H](CCC(=O)O)C(=O)N[C@@H](Cc1ccccc1)C(N)=O)CSSC[C@H](NC(=O)[C@H](C)NC(=O)[C@H](CCCNC(=N)N)NC(=O)[C@H](CCCCN)NC(=O)[C@H](CO)NC(=O)[C@H](CC(=O)O)NC3=O)C(=O)N2 [compound 876] | – | 72.1 | 66 | 1.09
5 | C#CC[C@@H]1NC(=O)[C@@H]2CSSC[C@H](NC(=O)[C@H](Cc3ccc(O)cc3)NC(=O)[C@@H](N)CC#N)C(=O)N[C@@H](CCC(N)=O)C(=O)N[C@@H](CCCCN)C(=O)N[C@@H](Cc3c[nH]c4ccccc34)C(=O)N[C@@H](CCCC)C(=O)N[C@@H](Cc3c[nH]c4ccccc34)C(=O)N[C@@H]([C@@H](C)O)C(=O)N[C@H]3CSSC[C@H](NC(=O)[C@H](CCCNC(=N)N)NC(=O)[C@H](CC(C)C)NC(=O)CNC1=O)C(=O)N[C@@H](CCCCN)C(=O)N[C@@H](CC(C)C)C(=O)N[C@@H](Cc1c[nH]c4ccccc14)C(=O)N[C@H](C(=O)N[C@@H](CCCNC(=N)N)C(=O)N[C@@H](CCCCN)C(=O)N[C@@H](CCC(=O)O)C(=O)N[C@@H](CCc1ccccc1)C(N)=O)CSSC[C@H](NC(=O)[C@H](C)NC(=O)[C@H](CCCNC(=N)N)NC(=O)[C@H](CCCCN)NC(=O)[C@H](CO)NC(=O)[C@H](CC(=O)O)NC3=O)C(=O)N2 [compound 877] | – | 14.9 | 93 | 0.16
6 | C#CC[C@@H]1NC(=O)[C@@H]2CSSC[C@H](NC(=O)[C@H](Cc3ccc(O)cc3)NC(=O)[C@@H](N)CC#N)C(=O)N[C@@H](CCC(N)=O)C(=O)N[C@@H](CCCCN)C(=O)N[C@@H](Cc3c[nH]c4ccccc34)C(=O)N[C@@H](CCCC)C(=O)N[C@@H](Cc3c[nH]c4ccccc34)C(=O)N[C@@H]([C@@H](C)O)C(=O)N[C@H]3CSSC[C@H](NC(=O)[C@H](CCCNC(=N)N)NC(=O)[C@H](CC(C)C)NC(=O)CNC1=O)C(=O)N[C@@H](CCCCN)C(=O)N[C@@H](CC(C)C)C(=O)N[C@@H](Cc1c[nH]c4ccc(Br)cc14)C(=O)N[C@H](C(=O)N[C@@H](CCCNC(=N)N)C(=O)N[C@@H](CCCCN)C(=O)N[C@H](C(=O)N[C@H](C(N)=O)[C@@H](C)CC)[C@@H](C)CC)CSSC[C@H](NC(=O)[C@H](C)NC(=O)[C@H](CCCNC(=N)N)NC(=O)[C@H](CCCCN)NC(=O)[C@H](CCC(=O)O)NC(=O)[C@H](CC(=O)O)NC3=O)C(=O)N2 [compound 1244] | – | 7.4 | 12 | 0.64
7 | C#CC[C@H](N)C(=O)N[C@@H](Cc1ccc(O)cc1)C(=O)N[C@H]1CSSC[C@@H]2NC(=O)[C@@H]3CSSC[C@@H](C(=O)N[C@@H](CCCNC(=N)N)C(=O)N[C@@H](CCCCN)C(=O)N[C@@H](CCC(=O)O)C(=O)N[C@H](C(N)=O)[C@@H](C)CC)NC(=O)[C@H](Cc4c[nH]c5ccccc45)NC(=O)[C@H](CC(C)C)NC(=O)[C@H](CCCCN)NC(=O)[C@H](CSSC[C@H](NC(=O)[C@H]([C@@H](C)O)NC(=O)[C@H](Cc4c[nH]c5ccccc45)NC(=O)[C@H](CCCC)NC(=O)[C@H](CCc4ccc(Br)cc4)NC(=O)[C@H](CCCCN)NC(=O)[C@H](CCC(N)=O)NC1=O)C(=O)N[C@@H](CC(=O)O)C(=O)N[C@@H](CO)C(=O)N[C@@H](CCCCN)C(=O)N[C@@H](CCCNC(=N)N)C(=O)N[C@@H](C)C(=O)N3)NC(=O)[C@H](CCCNC(=N)N)NC(=O)[C@H](CC(C)C)NC(=O)CNC(=O)[C@H](CCC(=O)O)NC2=O [compound 1603] | – | 47.9 | 207 | 0.23
8 | C#CC[C@@H]1NC(=O)[C@@H]2CSSC[C@H](NC(=O)[C@H](Cc3ccc(O)cc3)NC(=O)[C@@H](N)CC#N)C(=O)N[C@@H](CCC(N)=O)C(=O)N[C@@H](CCCCN)C(=O)N[C@@H](Cc3c[nH]c4ccccc34)C(=O)N[C@@H](CCCC)C(=O)N[C@@H](Cc3c[nH]c4ccccc34)C(=O)N[C@@H]([C@@H](C)O)C(=O)N[C@H]3CSSC[C@H](NC(=O)[C@H](CCCNC(=N)N)NC(=O)[C@H](CC(C)C)NC(=O)CNC1=O)C(=O)N[C@@H](CCCCN)C(=O)N[C@@H](CC(C)C)C(=O)N[C@@H](Cc1c[nH]c4ccc(C)cc14)C(=O)N[C@H](C(=O)N[C@@H](CCCNC(=N)N)C(=O)N[C@@H](CCCCN)C(=O)N[C@@H](CCC(=O)O)C(=O)N[C@H](C(N)=O)[C@@H](C)CC)CSSC[C@H](NC(=O)[C@H](C)NC(=O)[C@H](CCCNC(=N)N)NC(=O)[C@H](CCCCN)NC(=O)[C@H](CO)NC(=O)[C@H](CC(=O)O)NC3=O)C(=O)N2 [compound 1662] | – | 89.8 | 172 | 0.52
9 | C#CC[C@@H]1NC(=O)[C@@H]2CSSC[C@H](NC(=O)[C@@H](N)CC#N)C(=O)N[C@@H](CCC(N)=O)C(=O)N[C@@H](CCCCN)C(=O)N[C@@H](Cc3c[nH]c4ccccc34)C(=O)N[C@@H](CCCC)C(=O)N[C@@H](Cc3c[nH]c4ccccc34)C(=O)N[C@@H]([C@@H](C)O)C(=O)N[C@H]3CSSC[C@H](NC(=O)[C@H](CCCNC(=N)N)NC(=O)[C@H](CC(C)C)NC(=O)CNC1=O)C(=O)N[C@@H](CCCCN)C(=O)N[C@@H](CC(C)C)C(=O)N[C@@H](Cc1c[nH]c4ccccc14)C(=O)N[C@H](C(=O)N[C@@H](CCCNC(=N)N)C(=O)N[C@@H](CCCCN)C(=O)N[C@@H](CCC(=O)O)C(=O)N[C@H](C(N)=O)[C@@H](C)CC)CSSC[C@H](NC(=O)[C@H](C)NC(=O)[C@H](CCCNC(=N)N)NC(=O)[C@H](CCCCN)NC(=O)[C@H](CCC(=O)O)NC(=O)[C@H](CC(=O)O)NC3=O)C(=O)N2 [compound 1672] | – | 457 | 159 | 2.87
10 | C#CC[C@H](N)C(=O)N[C@H]1CSSC[C@@H]2NC(=O)[C@@H]3CSSC[C@@H](C(=O)N[C@@H](CCCNC(=N)N)C(=O)N[C@@H](CCCCN)C(=O)N[C@@H](CCC(=O)O)C(=O)N[C@H](C(N)=O)[C@@H](C)CC)NC(=O)[C@H](Cc4c[nH]c5ccccc45)NC(=O)[C@H](CC(C)C)NC(=O)[C@H](CCCCN)NC(=O)[C@H](CSSC[C@H](NC(=O)[C@H]([C@@H](C)O)NC(=O)[C@H](Cc4c[nH]c5ccccc45)NC(=O)[C@H](CCCC)NC(=O)[C@H](Cc4c[nH]c5ccccc45)NC(=O)[C@H](CCCCN)NC(=O)[C@H](CCC(N)=O)NC1=O)C(=O)N[C@@H](CC(=O)O)C(=O)N[C@@H](CO)C(=O)N[C@@H](CCCCN)C(=O)N[C@@H](CCCNC(=N)N)C(=O)N[C@@H](C)C(=O)N3)NC(=O)[C@H](C(C)C)NC(=O)[C@H](CC(C)C)NC(=O)CNC(=O)[C@H](CCC(=O)O)NC2=O [compound 1688] | – | 1120 | 280 | 3.99

Source: patent US10344060B2 (priority 2013, dated 2019)
